Source: BindingDB's records for PubMed 32739648 (n/a, 2020)

Biological target: Epidermal growth factor receptor (Homo sapiens, UniProt P00533)
Experiment: Inhibition of human EGFR incubated for 1 hrs in presence of ATP by ELISA assay

Sequence of Epidermal growth factor receptor (P00533 whole entry): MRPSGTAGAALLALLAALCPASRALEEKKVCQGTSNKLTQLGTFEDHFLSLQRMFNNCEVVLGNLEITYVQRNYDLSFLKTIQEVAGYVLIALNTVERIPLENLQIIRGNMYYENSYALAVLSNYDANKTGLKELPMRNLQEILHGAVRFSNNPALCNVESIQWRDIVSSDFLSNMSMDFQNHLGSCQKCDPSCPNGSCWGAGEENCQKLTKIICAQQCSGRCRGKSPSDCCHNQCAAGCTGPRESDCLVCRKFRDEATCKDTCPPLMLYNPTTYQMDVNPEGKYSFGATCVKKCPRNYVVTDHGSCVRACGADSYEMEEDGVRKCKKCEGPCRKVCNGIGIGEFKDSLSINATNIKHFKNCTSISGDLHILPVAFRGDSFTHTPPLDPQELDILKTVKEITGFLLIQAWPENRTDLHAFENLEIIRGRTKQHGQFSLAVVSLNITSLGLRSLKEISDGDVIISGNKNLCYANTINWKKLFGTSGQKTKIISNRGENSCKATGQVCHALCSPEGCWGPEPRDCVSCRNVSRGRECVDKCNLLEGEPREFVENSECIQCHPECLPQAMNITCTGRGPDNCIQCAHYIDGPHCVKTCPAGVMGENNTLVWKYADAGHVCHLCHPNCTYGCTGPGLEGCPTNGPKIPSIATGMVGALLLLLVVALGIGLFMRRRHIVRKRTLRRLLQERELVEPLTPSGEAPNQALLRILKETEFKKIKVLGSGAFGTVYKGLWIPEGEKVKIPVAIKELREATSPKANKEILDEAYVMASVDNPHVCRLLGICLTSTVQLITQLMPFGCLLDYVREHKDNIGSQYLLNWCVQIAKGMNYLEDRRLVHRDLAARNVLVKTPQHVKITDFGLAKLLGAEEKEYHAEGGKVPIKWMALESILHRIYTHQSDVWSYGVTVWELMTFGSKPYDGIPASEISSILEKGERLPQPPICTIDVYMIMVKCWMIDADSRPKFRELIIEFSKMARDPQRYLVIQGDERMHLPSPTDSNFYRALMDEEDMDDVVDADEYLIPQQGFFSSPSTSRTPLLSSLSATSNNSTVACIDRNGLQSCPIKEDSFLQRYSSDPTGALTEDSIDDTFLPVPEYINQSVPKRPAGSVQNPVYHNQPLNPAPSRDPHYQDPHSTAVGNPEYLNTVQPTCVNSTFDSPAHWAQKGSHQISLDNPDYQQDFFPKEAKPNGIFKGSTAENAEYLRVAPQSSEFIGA

- IC50: 0.022 µM
Structure (SMILES): CSCC[C@@H](NC(=O)[C@@H](NC(=O)[C@@H](NC(=O)CC(=O)N(O)C/C=C(\C)CC/C=C(\C)CCC=C(C)C)C(C)C)C(C)C)C(=O)O
